Source: patent US20080193563A1, “HARNESSING WNT SIGNALING TO RESTRICT HIV REPLICATION” (priority 2006, published 2008)

Test system: HIV-Bal in U87MG
Experiment: Cytokine pre-stimulation and HIV-Bal replication in U87MG, p24 ELISA
Assay type: cell-based
Conditions: 24 h pre-stimulation, 0-1000 ng/ml, p24 day 7
Method: U87MG (A) and HFA (B) were pre-stimulated with increasing doses of either GM-CSF or IFNγ for 24 h followed by HIV-BAL infection for 24 hours. HIV replication was determined by measuring HIV p24 levels by ELISA seven days post-infection. The dotted line represents basal level of HIV infection of astrocytes without cytokine pre-treatment. Data is representative of three experiments performed in quadruplicate. Error bars represent standard deviations of the mean. Asterisks denote significant values (p<0.05) in comparison to untreated cultures as evaluated by analysis of variance.
To determine if pre-stimulation of astrocytes primes astrocytes, for productive HIV infection, U87MG and HFA were pre-treated for 24 hours with TNFγ, GM-CSF, or IFNγ at various concentrations (0-1000 ng/ml) then infected with HIV-Bal at 10 ng of HIV p24/1×10^6 cells for 24 hours. The cells were then washed extensively or trypsinized to remove bound virus and propagated in the presence of the respective cytokine concentration. HIV infection was monitored by p24 ELISA seven days post-infection. […]
IFN-γ Treatment and HIV Infection. […] HIV infection was monitored at day 7 postinfection by measuring p24 levels by conventional enzyme-linked immunosorbent assay (ELISA) (National Cancer Institute, Frederick, Md.).

IFNγ: cytokine secreted by lymphocytes, activated microglia and astrocytes; used to prime astrocytes
Maximal induction of HIV replication vs untreated/infected cultures: 10 fold
